From ChEMBL document CHEMBL3044746, “Molecular modeling and pharmacophore approach for structural requirements of some 2-substituted-1-naphthols derivatives as potent 5-lipoxygenase inhibitors” (Med Chem Res, 2013)

Biological target: T1, Polyunsaturated fatty acid 5-lipoxygenase (Rattus norvegicus, UniProt P12527)
T1 sequence (P12527 whole entry): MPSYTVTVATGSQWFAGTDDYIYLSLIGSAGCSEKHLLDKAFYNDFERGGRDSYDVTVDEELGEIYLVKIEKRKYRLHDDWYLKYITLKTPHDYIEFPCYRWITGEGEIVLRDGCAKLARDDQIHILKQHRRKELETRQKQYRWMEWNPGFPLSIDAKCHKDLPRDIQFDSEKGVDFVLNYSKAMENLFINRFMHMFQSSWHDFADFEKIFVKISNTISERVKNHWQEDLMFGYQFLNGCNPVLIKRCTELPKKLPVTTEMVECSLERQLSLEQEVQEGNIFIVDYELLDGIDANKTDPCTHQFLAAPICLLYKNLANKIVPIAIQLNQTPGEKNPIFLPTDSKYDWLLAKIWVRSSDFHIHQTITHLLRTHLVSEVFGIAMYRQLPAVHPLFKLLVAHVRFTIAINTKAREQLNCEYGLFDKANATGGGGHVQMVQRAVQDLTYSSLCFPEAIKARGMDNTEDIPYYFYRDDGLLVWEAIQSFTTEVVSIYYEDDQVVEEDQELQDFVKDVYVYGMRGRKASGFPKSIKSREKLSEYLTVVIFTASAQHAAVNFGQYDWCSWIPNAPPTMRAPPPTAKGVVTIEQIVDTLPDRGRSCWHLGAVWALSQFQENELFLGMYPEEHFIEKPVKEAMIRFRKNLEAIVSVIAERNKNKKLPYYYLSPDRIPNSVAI
Assay: Inhibition of 5-lipoxygenase in Rattus norvegicus Rat basophil leukemia cells (RBL) cells

| SMILES | IC50 |
| --- | --- |
| CCOc1ccccc1Cc1ccc2ccccc2c1O | 57 nM |
| O=C(Oc1ccccc1)c1cc(Cc2ccccc2)c(O)c2ccccc12 | 160 nM |
| CCc1ccc2ccccc2c1O | 180 nM |
| Oc1c(/C=C/c2ccccc2)ccc2ccccc12 | 160 nM |
